US11040979B2, “Substituted pyrrolo[1,2-b]pyridazines for treating disorders related to KIT and PDGFR” (Blueprint Medicines Corporation, priority 2017, dated 2021)
pIC50: −log10 of the molar value.

Experiments:
Experiment in all cases: Kinase profiling with recombinant enzyme, 33P-ATP filter-binding method
Type in all cases: biochemical
KIT V559D/T670I = KIT V559D/T670I (Homo sapiens (Human), UniProt P10721, T670I/V559D); conditions: c-KIT V559D/T670I, poly[Glu:Tyr] (4:1), ATP (Km) 5 uM; read-out: INH-KITV559D/T670I (exon 13) IC50
Experimental: (§1) KIT, KIT mutant, and PDGFRα mutant kinase profiling was performed with recombinant enzymes including wild-type KIT, KIT V560G, KIT V559D/T670I, V559D/V654A, and PDGFRα D842V. Kinase/substrate pairs were prepared in reaction buffer (20 mM Hepes (pH 7.5), 10 mM MgCl2, 1 mM EGTA, 0.02% Brij35, 0.02 mg/ml BSA, 0.1 mM Na3VO4, 2 mM DTT, 1% DMSO). Compounds were dissolved at 10 mM in 100% DMSO, serial diluted and added to the kinase/substrate mix in final concentrations from 10 uM to 0.5 pM. Compounds were incubated with the recombinant enzymes and substrates at room temperature for 20 minutes with their respective Km for ATP. ^33P-ATP (10 mCi/mL) was added to initiate the reaction. Incubation for two hours at room temperature was followed by spotting onto P81 ion exchange paper and detection of kinase activity by a filter-binding method.
(§2) Conditions for Specific Enzyme Assays:
(§3) Data was normalized to 0% and 100% inhibition controls and the IC50 calculated using a 4-parameter curve fit.

KIT V559D/V654A = KIT V559D/V654A (Homo sapiens (Human), UniProt P10721, V559D/V654A); conditions: c-KIT V559D/V654A, poly[Glu:Tyr] (4:1), ATP (Km) 20 uM; read-out: INH-KITV559D/V654A (exon 13) IC50
Experimental: as §1, §2, §3

KIT V560G = KIT V560G (Homo sapiens (Human), UniProt P10721, V560G); conditions: c-KIT V560G, poly[Glu:Tyr] (4:1), ATP (Km) 20 uM; read-out: INH-KITV560G (exon 11) IC50
Experimental: as §1, §2, §3

PDGFRα D842V = PDGFRα D842V (Homo sapiens (Human), UniProt P16234, D842V); conditions: poly[Glu:Tyr] (4:1), ATP (Km) 1 uM, read-out: INH-PDGFRα D842V (exon 18) IC50
Experimental: as §1, §2, §3

wild-type KIT = wild-type KIT (Homo sapiens (Human), UniProt P10721); conditions: c-KIT WT, poly[Glu:Tyr] (4:1), ATP (Km) 100 uM; read-out: INH-KITWT IC50
Experimental: as §1, §2, §3

Sequence of KIT V560G (P10721 26-976 V560G): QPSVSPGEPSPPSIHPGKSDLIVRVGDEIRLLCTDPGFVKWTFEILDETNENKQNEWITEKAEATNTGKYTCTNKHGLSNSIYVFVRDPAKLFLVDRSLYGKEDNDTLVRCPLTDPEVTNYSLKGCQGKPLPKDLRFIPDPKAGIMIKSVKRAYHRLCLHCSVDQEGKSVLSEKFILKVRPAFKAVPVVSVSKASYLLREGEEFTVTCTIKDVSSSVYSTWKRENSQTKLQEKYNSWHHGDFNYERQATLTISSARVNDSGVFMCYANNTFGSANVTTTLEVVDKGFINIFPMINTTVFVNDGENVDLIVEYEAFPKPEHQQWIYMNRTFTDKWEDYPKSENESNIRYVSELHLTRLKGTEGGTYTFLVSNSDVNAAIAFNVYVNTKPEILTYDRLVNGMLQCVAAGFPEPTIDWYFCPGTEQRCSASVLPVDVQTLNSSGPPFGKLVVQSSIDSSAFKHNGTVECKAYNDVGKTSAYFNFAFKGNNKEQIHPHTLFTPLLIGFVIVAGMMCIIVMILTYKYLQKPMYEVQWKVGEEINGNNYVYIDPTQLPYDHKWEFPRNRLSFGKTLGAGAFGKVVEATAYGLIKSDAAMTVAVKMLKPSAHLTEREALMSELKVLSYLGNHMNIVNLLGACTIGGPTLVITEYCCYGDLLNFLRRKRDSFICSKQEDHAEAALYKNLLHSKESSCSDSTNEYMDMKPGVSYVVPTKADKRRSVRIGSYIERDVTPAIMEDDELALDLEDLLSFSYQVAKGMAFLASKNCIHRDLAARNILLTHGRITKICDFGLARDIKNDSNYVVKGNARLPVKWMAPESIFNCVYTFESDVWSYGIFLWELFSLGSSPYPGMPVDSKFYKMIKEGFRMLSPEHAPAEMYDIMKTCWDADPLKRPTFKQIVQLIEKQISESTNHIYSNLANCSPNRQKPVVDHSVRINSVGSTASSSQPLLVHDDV
Sequence of KIT V559D/T670I (P10721 26-976 V559D/T670I): as the sequence (P10721 26-976 V560G) above, with V534D, G535V, T645I counted along it
Sequence of PDGFRα D842V (P16234 24-1089 D842V): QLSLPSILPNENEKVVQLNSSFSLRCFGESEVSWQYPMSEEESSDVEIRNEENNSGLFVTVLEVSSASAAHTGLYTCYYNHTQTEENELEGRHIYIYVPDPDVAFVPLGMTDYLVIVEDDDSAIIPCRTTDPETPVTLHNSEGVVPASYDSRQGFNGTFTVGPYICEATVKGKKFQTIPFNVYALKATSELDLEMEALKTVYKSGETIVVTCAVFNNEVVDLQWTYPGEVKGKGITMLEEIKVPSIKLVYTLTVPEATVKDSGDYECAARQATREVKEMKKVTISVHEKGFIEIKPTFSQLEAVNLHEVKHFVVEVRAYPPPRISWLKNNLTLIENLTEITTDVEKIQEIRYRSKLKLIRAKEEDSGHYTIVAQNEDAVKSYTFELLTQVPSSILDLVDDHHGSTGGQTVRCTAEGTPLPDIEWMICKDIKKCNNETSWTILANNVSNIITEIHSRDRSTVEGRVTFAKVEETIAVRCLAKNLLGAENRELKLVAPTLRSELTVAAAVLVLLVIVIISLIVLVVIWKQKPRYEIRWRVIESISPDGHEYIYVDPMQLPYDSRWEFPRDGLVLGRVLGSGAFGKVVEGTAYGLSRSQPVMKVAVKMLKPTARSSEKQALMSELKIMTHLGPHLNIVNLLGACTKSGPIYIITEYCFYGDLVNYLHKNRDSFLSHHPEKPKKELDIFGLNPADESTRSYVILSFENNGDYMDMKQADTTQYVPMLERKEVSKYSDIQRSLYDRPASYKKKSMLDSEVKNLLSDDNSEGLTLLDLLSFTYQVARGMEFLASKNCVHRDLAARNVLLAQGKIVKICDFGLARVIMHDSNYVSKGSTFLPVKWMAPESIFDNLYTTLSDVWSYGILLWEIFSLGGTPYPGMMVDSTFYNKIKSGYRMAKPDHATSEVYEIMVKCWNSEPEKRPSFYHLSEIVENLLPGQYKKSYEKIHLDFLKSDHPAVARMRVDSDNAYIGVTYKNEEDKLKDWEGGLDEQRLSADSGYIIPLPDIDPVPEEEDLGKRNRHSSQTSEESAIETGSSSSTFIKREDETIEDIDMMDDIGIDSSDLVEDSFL
Sequence of wild-type KIT (P10721 26-976): as the sequence (P10721 26-976 V560G) above, with G535V counted along it
Sequence of KIT V559D/V654A (P10721 26-976 V559D/V654A): as the sequence (P10721 26-976 V560G) above, with V534D, G535V, V629A counted along it

| pIC50 (KIT V559D/T670I) | pIC50 (KIT V559D/V654A) | pIC50 (KIT V560G) | pIC50 (PDGFRα D842V) | pIC50 (wild-type KIT) | SMILES |
| --- | --- | --- | --- | --- | --- |
| 8.00 to 9.00 | 8.00 to 9.00 | 8.00 to 9.00 | > 9.00 | < 7.00 | Cn1cc(-c2cc3c(N4CCN(c5ncc([C@@](C)(N)c6ccc(F)cc6)cn5)CC4)ccnn3c2)cn1 [Compound 1, (S)-1-(4-fluorophenyl)-1-(2-(4-(6-(1-methyl-1H-pyrazol-4-yl)pyrrolo[1,2-b]pyridazin-4-yl)piperazin-1-yl)pyrimidin-5-yl)ethanamine] |
| 8.00 to 9.00 | 7.00 to 8.00 | 7.00 to 8.00 | > 9.00 | < 7.00 | Cn1cc(-c2cc3c(N4CCN(c5ncc([C@@](C)(N)c6ccc(F)cc6)cn5)CC4)c(F)cnn3c2)cn1 [Compound 2, (S)-1-(2-(4-(3-fluoro-6-(1-methyl-11H-pyrazol-4-yl)pyrrolo[1,2-b]pyridazin-4-yl)piperazin-1-yl)pyrimidin-5-yl)-1-(4-fluorophenyl)ethanamine] |
| 8.00 to 9.00 | < 7.00 | 7.00 to 8.00 | > 9.00 | < 7.00 | Cn1cc(-c2cc3c(N4CCN(c5ncc([C@@](C)(N)c6ccc(F)cc6)cn5)CC4)c(Cl)cnn3c2)cn1 [Compound 3, (S)-1-(2-(4-(3-chloro-6-(1-methyl-1H-pyrazol-4-yl)pyrrolo[1,2-b]pyridazin-4-yl)piperazin-1-yl)pyrimidin-5-yl)-1-(4-fluorophenyl)ethanamine] |
| 8.00 to 9.00 | 7.00 to 8.00 | 8.00 to 9.00 | > 9.00 | < 7.00 | Cn1cc(-c2cc3c(N4CCN(c5ncc([C@@](C)(N)c6ccc(F)cc6)cn5)CC4)c(C#N)cnn3c2)cn1 [Compound 4, (S)-4-(4-(5-(1-amino-1-(4-fluorophenyl)ethyl)pyrimidin-2-yl)piperazin-1-yl)-6-(1-methyl-1H-pyrazol-4-yl)pyrrolo[1,2-b]pyridazine-3-carbonitrile] |
